Assay results from US10729759B2, “Fluorocarbon-linked peptide formulation” (priority 2010, dated 2020).
Entries after “also recorded” stand apart in the source; their conditions may differ. Read-outs that look alike come from different tables or passages of the source. Residues, ends and D or L forms follow the SMILES beside them. *: point of attachment. Propanoyl(3-C8F17) = O=C(CCC(F)(F)C(F)(F)C(F)(F)C(F)(F)C(F)(F)C(F)(F)C(F)(F)C(F)(F)F)*

Experiments:
[1] = for Ease of solubility, Cycle 1 Vortexing: 10 mg net/ml in 10% (FCP1, 2, 4, 5) or 80% (FCP9, 8) acetic acid; for Visual appearance after dispersion: 10 mg net/ml in AcOH 10% or 80%
[2] = assay type: physicochemical; conditions: 1.33% mannitol, 0.22 μm PVDF filter
[3] = assay type: physicochemical; conditions: for Percentage acetic acid (% v/v): minimum concentration for acceptable dispersibility and solubility: FCP 2 μmol/ml after acetic acid dispersion; for Visual appearance after dispersion: at the listed acetic acid concentration, FCP 2 μmol/ml; for Physical stability of formulation at less than 80% (v/v) acetic acid: gel or soluble particulates formed over time
Protocol: In order to limit the concentration of acetic acid downstream in the formulation process and in the final product, the lowest concentration of acetic acid in water to achieve efficient dispersion and maintain visible solubility was determined for each fluorocarbon-linked peptide. When using mannitol as a cryprotectant, it is important to minimize the acetic acid concentration at the lyophilisation stage in order to achieve a stable and amorphous freeze-dried product. The minimum acetic acid concentration to achieve acceptable dispersibility and solubility of the individual fluorocarbon-linked peptides was determined. The final concentration of fluorocarbon-linked peptide after initial acetic acid dispersion was 2 μmol/ml and after dilution with mannitol, 0.250 μmol/ml.

[4] = assay type: physicochemical; conditions: for Further dilution in Mannitol:Water Solubility: FCP 0.167 mM, 1.33% (w/v) mannitol, cloudiness / particulates; for Dispersion in Water Solubility: FCP 1.333 mM in water, vortexed and sonicated, cloudiness (Clear/Cloudy−/Cloudy/Cloudy+) / particulates
Protocol: The solubility of each FCP in water was assessed. Each FCP was dispersed in 300 μl of water to a final concentration of 1.333 mM and vortexed and sonicated. The typical dispersion conditions were four sequences of three minutes bath sonication interspersed by 30 seconds vortexing. After inspection, the resulting solution was diluted with a mannitol solution (a candidate lyophilisation medium, final concentration of peptide 0.167 mM, 1.33% (w/v) mannitol). Solubility was assessed by visual observation of the cloudiness of the resulting dispersion (scaled: Clear/Cloudy−/Cloudy/Cloudy+) and presence of particulates. […]

[5] = 10 mg net/ml in 10% or 80% acetic acid

Row | Structure (SMILES) | Ease of solubility, Cycle 1 Vortexing [1] | Ease of solubility, Cycle 1 Sonication [1, 5] | Ease of solubility, Cycle 2 Vortexing [1, 5] | Ease of solubility, Cycle 3 Sonication [1, 5] | Visual appearance after dispersion [1] | YIELD % of each FCP following sterile filtration, MIX 2 ([2]; MIX 2 dispersed in water) | Percentage acetic acid (% v/v): minimum concentration for acceptable dispersibility and solubility [3] | Visual appearance after dispersion [3] | Physical stability of formulation at less than 80% (v/v) acetic acid [3] | Further dilution in Mannitol:Water Solubility [4] | Dispersion in Water Solubility [4] | Ease of solubility, Cycle 2 Sonication [1, 5] | Ease of solubility, Cycle 3 Vortexing [1, 5] | YIELD % of each FCP following sterile filtration, MIX 1 ([2]; MIX 1 dispersed in water)
1 | CC[C@H](C)[C@H](NC(=O)[C@H](Cc1ccc(O)cc1)NC(=O)[C@@H](NC(=O)[C@H](CO)NC(=O)[C@H](CO)NC(=O)[C@@H](NC(=O)CNC(=O)CNC(=O)[C@H](C)NC(=O)[C@@H](NC(=O)[C@@H]1CCCN1C(=O)[C@H](CC(C)C)NC(=O)[C@H](Cc1ccccc1)NC(=O)[C@H](CCCNC(=N)N)NC(=O)[C@@H](NC(=O)[C@H](CCCCN)NC(=O)[C@H](CCCNC(=N)N)NC(=O)[C@@H](NC(=O)[C@H](CC(C)C)NC(=O)[C@H](CCC(=O)O)NC(=O)[C@H](CCCNC(=N)N)NC(=O)[C@H](CCC(=O)O)NC(=O)[C@H](CC(C)C)NC(=O)[C@H](CCSC)NC(=O)[C@H](Cc1ccc(O)cc1)NC(=O)[C@H](C)NC(=O)[C@@H](NC(=O)[C@@H](N)CCCCNC(=O)CCC(F)(F)C(F)(F)C(F)(F)C(F)(F)C(F)(F)C(F)(F)C(F)(F)C(F)(F)F)C(C)C)C(C)C)[C@@H](C)O)C(C)C)[C@@H](C)O)C(C)C)C(=O)N[C@@H](CCC(=O)O)C(=O)N[C@H](C(=O)N[C@@H](CC(C)C)C(=O)N[C@@H](Cc1c[nH]cn1)C(=O)N[C@@H](CC(C)C)C(=O)N[C@H](C(=O)N[C@@H](CCC(N)=O)C(=O)NCC(N)=O)[C@@H](C)O)C(C)C [FCP8] (H-K(Propanoyl(3-C8F17))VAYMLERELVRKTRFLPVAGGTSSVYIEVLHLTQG-NH2) | Particulates+ | Some | Some | Clear | Clear | 25.3% | 80 % v/v | Clear | physically unstable over time | insoluble; also recorded: Cloudy/Particulates | Cloudy/Particulates | – | – | –
2 | CC[C@H](C)[C@H](NC(=O)[C@H](CO)NC(=O)[C@H](CC(C)C)NC(=O)[C@@H](NC(=O)[C@H](CC(N)=O)NC(=O)[C@H](CCCNC(=N)N)NC(=O)[C@H](Cc1ccccc1)NC(=O)[C@H](Cc1c[nH]c2ccccc12)NC(=O)[C@H](CCC(=O)O)NC(=O)[C@@H]1CCCN1C(=O)[C@H](CCC(N)=O)NC(=O)[C@H](CC(N)=O)NC(=O)[C@H](CCCNC(=N)N)NC(=O)[C@@H](NC(=O)[C@@H](NC(=O)[C@H](Cc1ccc(O)cc1)NC(=O)[C@@H](N)CCCCNC(=O)CCC(F)(F)C(F)(F)C(F)(F)C(F)(F)C(F)(F)C(F)(F)C(F)(F)C(F)(F)F)[C@@H](C)CC)[C@@H](C)O)C(C)C)C(=O)N[C@@H](C)C(=O)N1CCC[C@H]1C(=O)N[C@H](C(=O)N[C@@H](CCSC)C(=O)N[C@@H](Cc1ccccc1)C(=O)N[C@@H](CO)C(=O)N[C@@H](CC(N)=O)C(=O)N[C@@H](CCCCN)C(=O)N[C@@H](CCSC)C(=O)N[C@@H](C)C(=O)N[C@@H](CCCNC(=N)N)C(=O)N[C@@H](CC(C)C)C(=O)NCC(=O)N[C@@H](CCCCN)C(=O)NCC(=O)N[C@@H](Cc1ccc(O)cc1)C(=O)N[C@@H](CCSC)C(=O)N[C@@H](Cc1ccccc1)C(=O)N[C@@H](CCC(=O)O)C(N)=O)[C@@H](C)CC [FCP9] | Particulates− | Clear | Clear | Clear | Clear | – | 80 % v/v | Clear | physically unstable over time | partially soluble; also recorded: Clear/Particulates | Cloudy−/Particulates | Clear | Clear | 22.9%
